Experimental data: the NIST ThermoML archive (doi:10.1021/je900550v)

Settings: 101.33 kPa, Liquid; for speed of sound: Pulse-echo method; for mass density: Vibrating tube method

CCCCC(=O)[O-].C[NH2+]CCO [2-hydroxy-N-methylethanaminium pentanoate]
Settings | mass density [kg/m3] | speed of sound [m/s] | viscosity [mPa·s]
308.15 K | 1009.51 | 1517.6 | 133.08
308.4 K | 1009.34 | 1516.8 | –
308.65 K | 1009.18 | 1516.1 | –
308.9 K | 1009.01 | 1515.3 | –
309.15 K | 1008.84 | 1514.5 | –
309.4 K | 1008.67 | 1513.8 | –
309.65 K | 1008.5 | 1513 | –
309.9 K | 1008.33 | 1512.2 | –
310.15 K | 1008.16 | 1511.4 | 117.28
310.4 K | 1007.99 | 1510.7 | –
310.65 K | 1007.82 | 1509.9 | –
310.91 K | 1007.65 | 1509.1 | –
311.16 K | 1007.48 | 1508.3 | –
311.4 K | 1007.31 | 1507.6 | –
311.65 K | 1007.14 | 1506.8 | –
311.91 K | 1006.97 | 1506 | –
312.16 K | 1006.8 | 1505.3 | –
312.41 K | 1006.63 | 1504.5 | –
312.66 K | 1006.46 | 1503.7 | –
312.91 K | 1006.29 | 1503 | –
313.15 K | – | – | 102.38
313.16 K | 1006.12 | 1502.2 | –
313.4 K | 1005.95 | 1501.4 | –
313.66 K | 1005.78 | 1500.7 | –
313.9 K | 1005.61 | 1499.9 | –
314.15 K | 1005.44 | 1499.1 | –
314.4 K | 1005.27 | 1498.3 | –
314.65 K | 1005.09 | 1497.6 | –
314.9 K | 1004.92 | 1496.8 | –
315.15 K | 1004.75 | 1496 | 91.92
315.41 K | 1004.58 | 1495.3 | –
315.65 K | 1004.4 | 1494.5 | –
315.91 K | 1004.24 | 1493.8 | –
316.16 K | 1004.07 | 1493 | –
316.41 K | 1003.89 | 1492.2 | –
316.66 K | 1003.72 | 1491.5 | –
316.91 K | 1003.55 | 1490.7 | –
317.16 K | 1003.38 | 1489.9 | –
317.4 K | 1003.21 | 1489.2 | –
317.66 K | 1003.04 | 1488.4 | –
317.91 K | 1002.86 | 1487.6 | –
318.15 K | – | – | 80.38
318.16 K | 1002.69 | 1486.9 | –
318.41 K | 1002.52 | 1486.1 | –
318.65 K | 1002.35 | 1485.3 | –
318.9 K | 1002.18 | 1484.6 | –
319.16 K | 1002 | 1483.8 | –
319.41 K | 1001.83 | 1483.1 | –
319.65 K | 1001.66 | 1482.3 | –
319.91 K | 1001.49 | 1481.5 | –
320.16 K | 1001.32 | 1480.8 | –
320.41 K | 1001.14 | 1480 | –
320.65 K | 1000.97 | 1479.2 | 70.74
320.91 K | 1000.8 | 1478.5 | –
321.15 K | 1000.62 | 1477.7 | –
321.41 K | 1000.45 | 1476.9 | –
321.66 K | 1000.28 | 1476.1 | –
321.9 K | 1000.1 | 1475.4 | –
322.15 K | 999.932 | 1474.6 | –
322.41 K | 999.756 | 1473.8 | –
322.65 K | 999.586 | 1473.1 | –
322.91 K | 999.412 | 1472.3 | –
323.15 K | – | – | 66.02
323.16 K | 999.237 | 1471.6 | –
323.41 K | 999.06 | 1470.8 | –
323.65 K | 998.891 | 1470 | –
323.91 K | 998.715 | 1469.2 | –
324.16 K | 998.543 | 1468.5 | –
324.41 K | 998.367 | 1467.7 | –
324.65 K | 998.196 | 1467 | –
324.9 K | 998.022 | 1466.2 | –
325.16 K | 997.846 | 1465.4 | –
325.4 K | 997.672 | 1464.7 | –
325.66 K | 997.495 | 1463.9 | –
325.9 K | 997.325 | 1463.1 | –
326.16 K | 997.148 | 1462.4 | –
326.41 K | 996.977 | 1461.6 | –
326.66 K | 996.8 | 1460.8 | –
326.9 K | 996.626 | 1460.1 | –
327.16 K | 996.452 | 1459.3 | –
327.4 K | 996.278 | 1458.5 | –
327.66 K | 996.103 | 1457.8 | –
327.9 K | 995.927 | 1457 | –
328.15 K | 995.753 | 1456.2 | –
328.41 K | 995.577 | 1455.5 | –
328.66 K | 995.401 | 1454.7 | –
328.9 K | 995.229 | 1453.9 | –
329.16 K | 995.05 | 1453.2 | –
329.4 K | 994.879 | 1452.4 | –
329.65 K | 994.701 | 1451.6 | –
329.9 K | 994.528 | 1450.8 | –
330.16 K | 994.354 | 1450.1 | –
330.41 K | 994.177 | 1449.3 | –
330.66 K | 993.999 | 1448.5 | –
330.91 K | 993.824 | 1447.8 | –
331.16 K | 993.649 | 1447 | –
331.41 K | 993.472 | 1446.2 | –
331.66 K | 993.296 | 1445.5 | –
331.91 K | 993.121 | 1444.7 | –
332.16 K | 992.945 | 1443.9 | –
332.41 K | 992.768 | 1443.2 | –
332.66 K | 992.592 | 1442.4 | –
332.91 K | 992.415 | 1441.6 | –
333.16 K | 992.239 | 1440.8 | –
333.41 K | 992.064 | 1440.1 | –
333.66 K | 991.886 | 1439.3 | –
333.91 K | 991.71 | 1438.5 | –
334.16 K | 991.536 | 1437.8 | –
334.41 K | 991.358 | 1437 | –
334.66 K | 991.18 | 1436.2 | –
334.91 K | 991.004 | 1435.5 | –
335.16 K | 990.827 | 1434.7 | –
335.41 K | 990.651 | 1434 | –
335.66 K | 990.472 | 1433.2 | –
335.91 K | 990.295 | 1432.4 | –
336.16 K | 990.117 | 1431.7 | –
336.41 K | 989.938 | 1430.9 | –
336.66 K | 989.761 | 1430.1 | –
336.9 K | 989.584 | 1429.3 | –
337.16 K | 989.407 | 1428.6 | –
337.4 K | 989.229 | 1427.8 | –
337.66 K | 989.051 | 1427 | –
337.9 K | 988.872 | 1426.3 | –
338.15 K | 988.703 | 1425.6 | –
